Data on three molecules can be found in paper PMC7345637, “Characterization of Synthetic Tf2 as a NaV1.3 Selective Pharmacological Probe” (Biomedicines, 2020).

For one assay, the system named is NaV1.3. As to conditions: cited from earlier work. From the text: (§1) Selective VGSC modulators remain useful tool compounds for delineating the contribution of particular isoforms to the excitability of neurons in both physiological and pathological states. […] In an attempt to rationally ...
Another assay deals with NaV1.1. Conditions: cited from earlier work.
Text: as §1

The subject of a further assay is C57BL/6J mice. Briefly: Spontaneous pain behaviors after intraplantar injection, wildtype mice. Conditions: mouse, in vivo. From the text:
For behavioral assessment, we used adult male wildtype or homozygous NaV1.9-deficient (NaV1.9^-/-) mice aged 6–8 weeks (~25g) on a C57BL/6J background. Homozygous Nav1.9 knockout mice on a C57BL/6J background were generated using CRISPR/Cas9 technology by the Queensland Facility for Advanced Genome Editing (The University of Queensland, Australia). In brief, two sgRNAs were designed to target exon 2 of the Scn11a gene. The deletion of exon 2 generated a frame shift mutation resulting in the introduction of stop codons in exon 3. […]
[…]. Mice were then placed individually into polyvinyl boxes (10 × 10 × 10 cm) and recorded by video for 20 min post-injection. The number of spontaneous pain behaviors, including licks, shakes, and flinches, were counted later by a blinded observer. Once spontaneous pain behavior had ceased, mechanical thresholds were assessed using an electronic von Frey apparatus (MouseMet Electronic von Frey, TopCat Metrology, Ely, UK), heat thresholds were assessed using the thermal probe test (MouseMet Thermal), and weight bearing was assessed using the Catwalk XT (Noldus Information Technology, Wageningen, The Netherlands) as previously described. To quantify weight bearing, the parameter ‘mean intensity of the 15 most intense pixels’ was used as a surrogate measure.
Data were plotted and analyzed by GraphPad Prism, versions 8.2.0 and 8.4.2. […]

The subject of the next assay is mouse DRG neurons. In kind it is cell-based.
Assay [1] deals with voltage-gated calcium channels (CaV). As to conditions: cited from earlier work. From the text:
Tf2 caused Ca^2+ influx in both small and large mouse adult DRG neurons, which was surprising given NaV1.3 is only expressed at significant levels in embryonic sensory neurons or in adult neurons after axotomy. […] As DRG neurons in this study were isolated from all spinal levels, we cannot rule out the presence of these NaV1.3-expressing neurons in culture. However, given the definitive lack of proteomic evidenc ...

As to `O=C(Nc1ccc(S(=O)(=O)Nc2nccs2)cc1)C(c1ccccc1)c1ccccc1` [ICA-121431], in the assay with NaV1.3, the NaV1.3 inhibition result was “most potent NaV1.3 inhibitor described to the date”. In addition, the “activity at NaV1.1” value in the assay on NaV1.1 is listed as “off-target activity at NaV1.1”. Moreover, in the assay with C57BL/6J mice, the “effect on Tf2-induced spontaneous flinching” value is given as “no effect on Tf2-induced spontaneous flinching”.
On to `NC1=N[C@H](O)[C@H]2[C@H]3O[C@]4(O)O[C@@H]([C@@H](O)[C@@]2(N1)[C@@H]4O)[C@]3(O)CO` [TTX, tetrodotoxin], for which, in the assay on mouse DRG neurons, the “block of Tf2-induced DRG neuron activation” value was “completely blocked”.

B1: kurtoxin: scorpion toxin from Parabuthus transvaalicus (protein, UniProt P58910 1-63, looked up)
Kurtoxin: KIDGYPVDYWNCKRICWYNNKYCNDLCKGLKADSGYCWGWTLSCYCQGLPDNARIKRSGRCRA
Take B1: the “modulation of voltage-gated calcium channels (CaV)” value in assay [1] was “modulate members of the family of voltage-gated calcium channels (CaV)”.
